The values below are quoted from earlier work in patent publication US20050214675A1, “Positive-type photosensitive composition” (FUJI PHOTO FILM CO., LTD., priority 2004, published 2005).

Like-named read-outs stand apart in the source and are kept apart here.

The conditions of the data set: for σ (sum of Hammett values of substituents on the aryl skeletons of the cation): o-position treated as p-position; for Hammett value: cation of the sulfonium salt used in the plate, third embodiment Tables 1 to 4.
[1] abbreviates: compound list of first embodiment.
Setting [2] is: compound list of second embodiment.

`Cc1ccc([S+](c2ccc(C)cc2)c2cc(C)c(O)c(C)c2)cc1` [(89)]: the “σ (sum of Hammett values of substituents on the aryl skeletons of the cation)” value is, setting by setting: under setting [1], −0.848; under setting [2], −0.848. With `O=Cc1ccccc1S(=O)(=O)O` [(72)], the Hammett value was 0.69. For the compound `Fc1ccc([S+](c2ccc(F)cc2)c2ccc(F)cc2)cc1` [(87)], the “σ (sum of Hammett values of substituents on the aryl skeletons of the cation)” value runs as follows: under setting [1], 0.186; under setting [2], 0.186. For the compound `COc1cc(O)c(C(=O)c2ccccc2)cc1S(=O)(=O)O` [(77)], the Hammett value is 0.69. For the compound `O=C(O)c1cc(C(=O)O)cc(S(=O)(=O)O)c1` [(76)], the Hammett value is listed as 0.69. Turning to `COc1ccc([S+](c2ccc(OC)cc2)c2ccc(OC)cc2)cc1` [(88)], the “σ (sum of Hammett values of substituents on the aryl skeletons of the cation)” value under setting [1] is −0.804 and the “σ (sum of Hammett values of substituents on the aryl skeletons of the cation)” value under setting [2] is given as −0.804. On to `CC(C)(C)c1ccc([S+](c2ccc(C(C)(C)C)cc2)c2ccc(C(C)(C)C)cc2)cc1` [(86)], for which the “σ (sum of Hammett values of substituents on the aryl skeletons of the cation)” value is given as −0.59 under setting [1] and −0.59 under setting [2].

In the case of `O=S(=O)(O)c1ccc(O)cc1` [(68)], the Hammett value is recorded as 0.69. As to `O=C(O)c1c2ccccc2cc2ccccc12` [(28)], the Hammett value is recorded as 0. For the compound `CC(C)(C)c1ccc([S+](c2ccc(Cl)cc2)c2ccc(Cl)cc2)cc1` [(85)], the “σ (sum of Hammett values of substituents on the aryl skeletons of the cation)” value under setting [1] is recorded as 0.26 and the “σ (sum of Hammett values of substituents on the aryl skeletons of the cation)” value under setting [2] is 0.26.

As to `COC(=O)c1cc(C(=O)OC)cc(S(=O)(=O)O)c1` [(75)], the Hammett value is 0.69. Take `Cc1ccc([S+](c2ccc(Cl)cc2)c2ccc(Cl)cc2)cc1` [(84)]: the “σ (sum of Hammett values of substituents on the aryl skeletons of the cation)” value was 0.29 under setting [1] and 0.29 under setting [2].
